Where a name gives a salt, the structure may show the parent alone.
Columns and labels:
progesterone receptor-B [1] = target: T1, progesterone receptor-B (Homo sapiens, UniProt P06401); test: Progesterone receptor-B transactivation, agonistic mode (CHO cells, luciferase); assay type: cell-based; settings: for EC50: CHO cells, agonistic mode, read-out: PRBagoEC50; for Emax: CHO, read-out: PRBago Eff (%)
T1 sequence (P06401 1-933): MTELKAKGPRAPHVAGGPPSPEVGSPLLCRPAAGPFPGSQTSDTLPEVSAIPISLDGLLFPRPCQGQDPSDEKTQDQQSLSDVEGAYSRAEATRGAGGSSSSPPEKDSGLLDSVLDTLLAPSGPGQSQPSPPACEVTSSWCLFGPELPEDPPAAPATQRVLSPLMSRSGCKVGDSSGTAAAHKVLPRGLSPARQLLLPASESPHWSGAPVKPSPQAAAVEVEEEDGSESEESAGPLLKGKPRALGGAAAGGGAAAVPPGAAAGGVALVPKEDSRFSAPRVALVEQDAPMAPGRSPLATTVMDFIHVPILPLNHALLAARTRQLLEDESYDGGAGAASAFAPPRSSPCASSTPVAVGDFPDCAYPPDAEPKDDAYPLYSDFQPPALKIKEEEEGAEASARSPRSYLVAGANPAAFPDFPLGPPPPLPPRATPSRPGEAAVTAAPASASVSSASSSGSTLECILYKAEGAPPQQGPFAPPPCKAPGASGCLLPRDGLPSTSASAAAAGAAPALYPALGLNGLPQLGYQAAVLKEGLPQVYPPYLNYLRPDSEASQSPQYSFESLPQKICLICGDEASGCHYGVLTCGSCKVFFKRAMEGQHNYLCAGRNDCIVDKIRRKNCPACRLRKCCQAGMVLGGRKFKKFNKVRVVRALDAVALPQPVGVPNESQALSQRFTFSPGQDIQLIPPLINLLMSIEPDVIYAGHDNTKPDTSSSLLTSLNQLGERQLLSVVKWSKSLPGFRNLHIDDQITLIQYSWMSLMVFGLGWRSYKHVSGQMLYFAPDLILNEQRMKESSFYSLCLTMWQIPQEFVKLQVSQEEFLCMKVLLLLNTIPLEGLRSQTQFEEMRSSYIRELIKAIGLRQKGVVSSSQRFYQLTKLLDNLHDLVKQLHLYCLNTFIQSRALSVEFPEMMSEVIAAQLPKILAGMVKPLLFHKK
Description: For selecting compounds of the subject invention with a mixed modulating effect on the progesterone receptor, testing in the agonistic mode must result in an intrinsic activity of between about 15% and about 85% of the maximal activity when (16α)-16-ethyl-21-hydroxy-19-norpregn-4-ene-3,20-dione is used as a reference. Moreover, this maximal agonistic activity should be reached at a concentration of 10^−6 or less, and preferably at a concentration of 10^−8 or less.
(§1) The progestagenic activity of a compound of the invention (EC50 and intrinsic agonistic activity) was determined in an in vitro bioassay of Chinese hamster ovary (CHO) cells as described by W. G. E. J. Schoonen et al. (Anal. Biochem. 261 (1998), 222-224). […] The efficacy of the antagonistic effect was expressed as the percentage of the effect produced by a standard antagonist, (6β,11β,17β)-11-[4-(dimethylamino)phenyl]-4′,5′-dihydro-6-methylspiro[estra-4,9-diene-17,2′(3′H)-furan]-3-one.
(§2) It will be recognized by those skilled in the art that, in the setting described above, the EC50 determined is more or less absolute and depends on the intrinsic property of the tested compound itself, however, the IC50 depends on the amount and agonistic EC50 of the inducer as well as on the intrinsic property of the tested compound itself. Thus, with the same amount of inducer, a relatively strong antagonist will be able to produce a measurable IC50 whereas a relatively weak antagonist may fail to produce a detectable result.

progesterone receptor-B [2] = target: T1, progesterone receptor-B; test: Progesterone receptor-B transactivation, antagonistic mode (inhibition of luciferase transactivation by inducer, CHO cells); assay type: cell-based; settings: for Emax: CHO, read-out: PRBant Eff (%); for EC50: in the presence of 0.1 nM inducer (16α)-16-ethyl-21-hydroxy-19-norpregn-4-ene-3,20-dione, read-out: PRBant EC50
Procedure: In the antagonistic mode, testing must result in an intrinsic activity of between about 85% and about 15% of the maximal activity when (6β,11β,17β)-11-[4-(dimethylamino)phenyl]-4′,5′-dihydro-6-methylspiro[estra-4,9-diene-17,2′(3′H)-furan]-3-one is used as a reference.
as §1, §2

[3] = intrinsic agonistic activity, relative to reference (16α)-16-ethyl-21-hydroxy-19-norpregn-4-ene-3,20-dione
[4] = intrinsic antagonistic activity, percentage of effect of standard antagonist (6β,11β,17β)-11-[4-(dimethylamino)phenyl]-4′,5′-dihydro-6-methylspiro[estra-4,9-diene-17,2′(3′H)-furan]-3-one, 0.1 nM inducer

| SMILES | EC50 (progesterone receptor-B [1]) [nM] | Emax (progesterone receptor-B [1]; [3]) [%] | Emax (progesterone receptor-B [2]; [4]) [%] | EC50 (progesterone receptor-B [2]) [nM] | PRBago Eff (%) (progesterone receptor-B [1]; [3]) | PRBant Eff (%) (progesterone receptor-B [2]; intrinsic antagonistic activity, percentage of effect of standard antagonist (6β,11β,17β)-11-[4-(dimethylamino)phenyl]-4′,5′-dihydro-6-methylspiro[estra-4,9-diene-17,2′(3′H)-furan]-3-one, 0.1 nM inducer, hydrochloride) |
| --- | --- | --- | --- | --- | --- | --- |
| CC[C@@H]1C[C@H]2[C@@H]3CCC4=CC(=O)CCC4=C3[C@@H](c3ccc(-c4ccc(OC)nc4)cc3)C[C@]2(C)[C@H]1C(=O)C1CC1 [Example 17, (11β,16α,17β)-17-cyclopropylcarbonyl-16-ethyl-11-[4-(6-methoxy-pyridin-3-yl)phenyl]-estra-4,9-dien-3-one] | 1.3 | 42 | 51.7 | 7.89 | – | – |
| C[C@@H]1C[C@H]2[C@@H]3CCC4=CC(=O)CCC4=C3[C@@H](c3ccc(-c4ccccn4)cc3)C[C@]2(C)[C@H]1C(=O)C1CC1 [Example 10, (11β,16α,17β)-17-cyclopropylcarbonyl-16-methyl-11-[4-(2-pyridinyl)phenyl]estra-4,9-dien-3-one] | 2.6 | 49.2 | 32.5 | 14.8 | – | – |
| COc1cncc(-c2ccc([C@H]3C[C@@]4(C)[C@@H](C[C@@H](C)[C@@H]4C(=O)C4CC4)[C@@H]4CCC5=CC(=O)CCC5=C43)cc2)c1 [Example 6, (11β,16α,17β)-17-cyclopropylcarbonyl-16-methyl-11-[4-(5-methoxy-pyridin-3-yl)phenyl]estra-4,9-dien-3-one] | 1.3 | 54 | 34 | 28 | – | – |
| C[C@@H]1C[C@H]2[C@@H]3CCC4=CC(=O)CCC4=C3[C@@H](c3ccc(-c4cnccn4)cc3)C[C@]2(C)[C@H]1C(=O)C1CC1 [Example 9, (11β,16α,17β)-17-cyclopropylcarbonyl-16-methyl-11-[4-(pyrazin-2-yl)phenyl]estra-4,9-dien-3-one] | 1.13 | 54 | 35 | 1.3 | – | – |
| C[C@@H]1C[C@H]2[C@@H]3CCC4=CC(=O)CCC4=C3[C@@H](c3ccc(-c4cccnc4)cc3)C[C@]2(C)[C@H]1C(=O)C1CC1 [Example 1, (11β,16α,17β)-17-cyclopropylcarbonyl-16-methyl-11-[4-(3-pyridinyl)-phenyl]estra-4,9-dien-3-one] | 0.2 | 49.2 | 46.4 | 0.267 | – | – |
| CC12CC(c3ccc(-c4cccnc4)cc3)C3=C4CCC(=O)C=C4CCC3C1CCC21CCCC1=O (stereo not drawn) [Example 25, (11β)-11-[4-(3-pyridinyl)phenyl]-17,24-cyclo-19,21-dinorchola-4,9-diene-3,20-dione hydrochloride] | 0.48 | – | – | 1.1 | 17 | 66 |
| Cc1ccc(-c2ccc([C@H]3C[C@@]4(C)[C@@H](C[C@@H](C)[C@@H]4C(=O)C4CC4)[C@@H]4CCC5=CC(=O)CCC5=C43)cc2)nc1 [Example 11] | 1.7 | 56 | 35 | 0.8 | – | – |
| C[C@@H]1C[C@H]2[C@@H]3CCC4=CC(=O)CCC4=C3[C@@H](c3ccc(-c4cnc5ccccc5c4)cc3)C[C@]2(C)[C@H]1C(=O)C1CC1 [Example 7, (11β,16α,17β)-17-cyclopropylcarbonyl-16-methyl-11-[4-(3-quinolidinyl)phenyl]estra-4,9-dien-3-one] | 1 | 50 | 24 | 3.14 | – | – |
| C[C@@H]1C[C@H]2[C@@H]3CCC4=CC(=NO)CCC4=C3[C@@H](c3ccc(-c4cccnc4)cc3)C[C@]2(C)[C@H]1C(=O)C1CC1 [Example 22, (11β,16α,17β)-17-cyclopropylcarbonyl-16-methyl-11-[4-(3-pyridinyl)-phenyl]estra-4,9-dien-3-one 3-oxime] | 0.64 | 43 | 32 | 1.47 | – | – |
| COc1ccc(-c2ccc([C@H]3C[C@@]4(C)[C@@H](CC[C@@]45CCCC5=O)[C@@H]4CCC5=CC(=O)CCC5=C43)cc2)cn1 [Example 24, (11β)-11-[4-(6-methoxypyridin-3-yl)phenyl]-17,24-cyclo-19,21-dinorchola 4,9-diene-3,20-dione] | 0.15 | 20 | 62 | 0.546 | – | – |
| C[C@]12C[C@H](c3ccc(-c4cccnc4)cc3)C3=C4CCC(=O)C=C4CC[C@H]3[C@@H]1CC[C@@H]2C(=O)C1CC1 [Example 18, (11β,17β)-17-cyclopropylcarbonyl-11-[4-(3-pyridinyl)phenyl]estra-4,9-dien-3-one] | 0.82 | 36 | 66 | 0.751 | – | – |
| C[C@@H]1C[C@H]2[C@@H]3CCC4=CC(=O)CCC4=C3[C@@H](c3ccc(-c4ccc(F)nc4)cc3)C[C@]2(C)[C@H]1C(=O)C1CC1 [Example 5, (11β,16α,17β)-17-cyclopropylcarbonyl-11-[4-(6-fluoropyridin-3-yl)phenyl]-16-methylestra-4,9-dien-3-one] | 0.49 | 50.5 | 50 | 8.48 | – | – |
| C[C@@H]1C[C@H]2[C@@H]3CCC4=CC(=O)CCC4=C3[C@@H](c3ccc(-c4ccc(Cl)nc4)cc3)C[C@]2(C)[C@H]1C(=O)C1CC1 [Example 4, (11β,16α,17β)-11-[4-(6-chloropyridin-3-yl)phenyl]-17-cyclopropyl-carbonyl-16-methylestra-4,9-dien-3-one] | 1.1 | 46.5 | 43 | 0.47 | – | – |
| C[C@]12C[C@H](c3ccc(-c4cccnc4)cc3)C3=C4CCC(=O)C=C4CC[C@H]3[C@@H]1C[C@@H](/C=C/c1ccccc1)[C@@H]2C(=O)C1CC1 [Example 14, [11β,16α(E),17β]-17-cyclopropylcarbonyl-16-(2-phenylethenyl)-11-[4-(3-pyridinyl)phenyl]estra-4,9-dien-3-one] | 5.7 | 49.8 | 34.5 | 29 | – | – |
| C[C@@H]1C[C@H]2[C@@H]3CCC4=CC(=O)CCC4=C3[C@@H](c3ccc(-c4ncccn4)cc3)C[C@]2(C)[C@H]1C(=O)C1CC1 [Example 27, (11β,16α,17β)-17-cyclopropylcarbonyl-16-methyl-11-[4-(pyrimidin-2-yl)phenyl]estra-4,9-dien-3-one] | 2.54 | 52 | > 27 | 3.25 | – | – |
| C=C[C@@H]1C[C@H]2[C@@H]3CCC4=CC(=O)CCC4=C3[C@@H](c3ccc(-c4ccc(OC)nc4)cc3)C[C@]2(C)[C@H]1C(=O)C1CC1 [Example 15, (11β,16α,17β)-17-(cyclopropylcarbonyl)-16-ethenyl-11-[4-(6-methoxypyridin-3-yl)phenyl]estra-4,9-dien-3-one] | 0.74 | 41.4 | 44.5 | 0.98 | – | – |
| COc1ccc(-c2ccc([C@H]3C[C@]4(C)[C@@H](C(=O)C5CC5)CC[C@H]4[C@@H]4CCC5=CC(=O)CCC5=C43)cc2)cn1 [Example 19, (11β,17β)-17-cyclopropylcarbonyl-11-[4-(6-methoxypyridin-3-yl)phenyl]estra-4,9-dien-3-one] | 0.51 | 28.3 | 57 | 0.427 | – | – |
